Source: patent publication US20040092549A1, “Methods and compositions for selective cancer chemotherapy” (priority 2001, published 2004)

Columns and labels:
[1] = test system: melanoma cells; details: treatment as in Example 2
Procedure: (§2) Cultures are re-fed periodically with additions of respective supplements, with or without medium change as indicated. Controls consist of cells receiving growth medium without added supplement.
(§3) The following day, threonate treatment is initiated using one of two protocols.
(§4) In one protocol (short exposure), monolayers are washed and exposed directly to 1 mL/well of 7.5-30 mM threonate (prepared in Ringer's solution) for brief periods at 37 C. as described by Fay and Verlangieri (referenced above). […] After exposure, the solution is removed and replaced by growth medium. […]
(§5) Cell survival following treatment is assessed at predetermined intervals by taking viable cell counts using a Neubauer haemocytometer. Viable cells are scored as those capable excluding trypan blue as previously described (Harakeh and Jariwalla, Am.J.Clin.Nutr. 54:1231S-1235S (1991)). […]
(§6) The induction of apoptosis following treatment of various tumor cell types with the Test compositions and controls described in Example 1 is evaluated using an enzyme-linked immunoassay (“ELISA”) developed by Boehringer-Mannheim (Indianapolis, Ind.). […] The presence and level of nucleosomal fragments in cytoplasmic lysates after different treatments is determined using the procedure specified in the cell-death detection ELISA kit, supplied by Boehringer-Mannheim. […]

[2] = test system: WRL-68 Normal Human Liver Cells; test: Cell-death detection ELISA (apoptosis), WRL-68 normal liver cells; type: cell-based
Procedure: (§1) Working stock solutions (10× strength) are made in sterile water immediately before use. For comparative evaluation, stock solutions of Test 2 and Test 4 solutions are prepared in sterile water, normalized to contain AA equivalents identical to the Test 1 stock. These stocks are stored at room temperature for use in evaluations. […] Parallel sets of wells are treated similarly with stock solutions of CA+CT and CA alone, containing the same equivalents of AA as Test 1. Control cultures are treated with an equivalent volume of sterile water. Periodic treatment with these compositions is repeated at 1-2 day intervals by direct addition of fresh solutions (without change of growth medium). […] Briefly, the ELISA assay is carried out as follows. […] The “Number of Treatments” is the total number of treatments with the Composition. The “Maximum Fold Increase in Apoptosis” is the maximal fold change in apoptosis over the control and the “Maximum Dose” is the concentration of the Composition which induces the “Maximum Fold Apoptosis” compared to the control.

[3] = test system: Malme-3M Melanoma; test: Cell-death detection ELISA (apoptosis), Malme-3M melanoma; type: cell-based, Human
Procedure: as §1

[4] = test system: SK-N-MC Neuroblastoma; test: Cell-death detection ELISA (apoptosis), SK-N-MC neuroblastoma; type: cell-based, Human
Procedure: as §1

[5] = test system: T-84 Colon Carcinoma; test: Cell-death detection ELISA (apoptosis), T-84 colon carcinoma; type: cell-based, Human
Procedure: as §1

[6] = test system: SK-Hep-1 Liver adenocarcinoma; test: Cell-death detection ELISA (apoptosis), SK-Hep-1 liver adenocarcinoma; type: cell-based, Human
Procedure: as §1

[7] = test system: Malme-3 Normal Human Skin Fibroblasts; test: Cell-death detection ELISA (apoptosis), Malme-3 normal skin fibroblasts; type: cell-based
Procedure: as §1

[8] = test system: hepatoma cells; details: treatment as in Example 2
Procedure: as §2, §3, §4, §5, §6

[9] = concentration causing 2-fold change in apoptosis over control
[10] = concentration inducing the maximum fold apoptosis
[11] = maximal fold change over control

Row | Compound | cell death (apoptosis) in melanoma cells as compared to normal cellular counterparts [1] | MINIMUM APOPTOTIC DOSE, DOSE CONC. (%) [2, 9] | MAXIMUM FOLD INCREASE IN APOPTOSIS, DOSE CONC. (%) [2, 10] | MAXIMUM FOLD INCREASE IN APOPTOSIS [2, 11] | MINIMUM APOPTOTIC DOSE, DOSE CONC. (%) [3, 9] | MAXIMUM FOLD INCREASE IN APOPTOSIS, DOSE CONC. (%) [3, 10] | MAXIMUM FOLD INCREASE IN APOPTOSIS [3, 11] | MINIMUM APOPTOTIC DOSE, DOSE CONC. (%) [4, 9] | MAXIMUM FOLD INCREASE IN APOPTOSIS, DOSE CONC. (%) [4, 10] | MAXIMUM FOLD INCREASE IN APOPTOSIS [4, 11] | MINIMUM APOPTOTIC DOSE, DOSE CONC. (%) [5, 9] | MAXIMUM FOLD INCREASE IN APOPTOSIS, DOSE CONC. (%) [5, 10] | MAXIMUM FOLD INCREASE IN APOPTOSIS [5, 11] | MINIMUM APOPTOTIC DOSE, DOSE CONC. (%) [6, 9] | MAXIMUM FOLD INCREASE IN APOPTOSIS, DOSE CONC. (%) [6, 10] | MAXIMUM FOLD INCREASE IN APOPTOSIS [6, 11] | MINIMUM APOPTOTIC DOSE, DOSE CONC. (%) [7, 9] | MAXIMUM FOLD INCREASE IN APOPTOSIS, DOSE CONC. (%) [7, 10] | MAXIMUM FOLD INCREASE IN APOPTOSIS [7, 11] | cell death (apoptosis) in hepatoma cells as compared to normal cellular counterparts [8]
1 | O=C1O[C@H]([C@@H](O)CO)C(O)=C1O [ascorbic acid (AA), Ascorbic Acid] | selective dose-dependent cell death (apoptosis) | – | – | – | – | – | – | – | – | – | – | – | – | – | – | – | – | – | – | –
2 | Calcium Ascorbate | – | 0.012% | 0.012% | 2.22 fold | 0.012% | 0.025% | 92.8 fold | 0.015% | 0.015% | 5.03 fold | >0.06% | 0.033% | 1.77 fold | 0.006% | 0.033% | 12.04 fold | 0.025% | 0.025% | 2.16 fold | –
3 | Calcium Threonate [calcium threonate (CT)] | selective dose-dependent cell death (apoptosis) | – | – | – | – | – | – | – | – | – | – | – | – | – | – | – | – | – | – | selective dose-dependent cell death (apoptosis)
